Experimental data published in US10695330B2, “Methods of treatment” (Global Blood Therapeutics, Inc., priority 2015, dated 2020).

Tested on: activated neutrophils
Experiment: Oxidative burst in activated neutrophils
Assay type: cell-based
Details: in vitro
Text: Reactive oxygen species (ROS) released from activated white blood cells cause lung injury as well as fibrotic changes in patients with IPF. […] Thus, the compounds described herein could also provide a method to inhibit the adverse effects of inflammation in a patient. Reduction in systemic pro-inflammatory cytokines (tumor necrosis alpha and interleukin-6) also has the potential to exert a broad anti-inflammatory effect which would supplement the beneficial effect of alleviation of hypoxemia via increased hemoglobin-O2 affinity.

Structure (SMILES): O=Cc1ccc(CO)o1 [Compound 5-HMF, 5-hydroxymethyl-2-furfural, reference compound]
- anti-oxidative activity (oxidative burst): does not display this activity
